In brackets after ≈: the same amount, converted by molar mass. Like-named read-outs stand apart in the source and are kept apart here.
Tests used:
[1] = Solubility as DMSO stock solution; assay type: physicochemical; settings: organic solvent or mixture
CTX-M-96 β-lactamase [2] = molecular target: T1, CTX-M-96 β-lactamase (Escherichia coli, UniProt Q9EXV5, N92S); assay: Off rate (koff) after preincubation with saturating BATSI; assay type: biochemical
CTX-M-96 β-lactamase [3] = molecular target: T1, CTX-M-96 β-lactamase; assay: IC50 after 5-min preincubation, nitrocefin reporter substrate; assay type: biochemical; settings: 100 μM nitrocefin
Procedure: (§1) Using nitrocefin as an indicator substrate and 5 min incubation before steady-state velocities were determined, 50% inhibitory concentrations (IC50s) in the nanomolar range for KPC-2 and CTX-M-96 β-lactamases were measured, and both inhibitors bound CTX-M-96 with greater affinity than KPC-2 (Table 1). The IC50 was approximatively 40-fold lower for CTX-M-96 than KPC-2 for both inhibitors. The IC50 of S02030 is 2 nM against CTX-M-96 and 80 nM against KPC-2 ([12]). […] The on rates (k2/K) for S02030 and MB_076 versus CTX-M-96 were 24,000 M^−1 s^−1 and 3,900 M^−1 s^−1, respectively, and those for KPC-2 were 12,000 M^−1 s^−1 and 1,200 M^−1 s^−1 respectively (Table 1). […] The k2/K values for both BATSIs against CTX-M-96 were lower than those of avibactam ([16]). […] Kinetic plots for CTX-M-96–S02030, CTX-M-96–MB_076, and KPC-2–MB_076 are shown in Fig. S1 in the supplemental material.
(§2) The inhibition by BATSIs is assumed to follow a reversible mechanism according to the following scheme: (1) E + I ↔ E:I ↔ E-I^*↔ E-I^** where E represents the enzyme, I the BATSI, E:I the Michaelis complex, E-I* the enzyme-inhibitor complex as the acylation transition state analog, and E-I** the deacylation transition state intermediate, according to previous models ([15]). The half-maximal inhibitory concentration (IC50) was measured after a 5-min preincubation of the enzyme and each BATSI at increasing concentrations, with 100 μM nitrocefin as the reporter substrate, as previously described ([12], [13]).

KPC-2 β-lactamase [4] = molecular target: T2, KPC-2 β-lactamase (Klebsiella pneumoniae, UniProt Q9F663); assay: as above; assay type: biochemical; settings: 100 μM nitrocefin
T2 construct: made in house; host or cells: E. coli BL21 Star
Procedure: as §1, §2

CTX-M-96 β-lactamase [5] = molecular target: T1, CTX-M-96 β-lactamase; assay: On rate (k2/K) from progress curves with nitrocefin; assay type: biochemical
Procedure: (§3) To determine the on rate (k2/K), progress curves were obtained by incubating KPC-2 or CTX-M-96 with increasing concentrations of BATSIs and 100 μM nitrocefin as the reporter substrate. Progress curves were fitted to equation 2 to obtain kobs values, by nonlinear least-squares fitting of the data, and k2/K was determined from equation 3. (2) A = vf * t + (v0 − vf) × (1 − e^−kobst)/kobserved + A0 (3) kobserved = k−2 + (k2/K) × ([I]/(1 + ([S]/Km nitrocefin))) In equation 2, A is absorbance at 482 nm, vf is final velocity, t is time, v0 is initial velocity, and A0 is initial absorbance at 482 nm. In equation 3, [I] is the concentration of BATSI and [S] is the concentration of nitrocefin. The data were plotted as kobs versus [BATSI], and the k2/K value was obtained by correcting the value for the slope of the line for the concentration and affinity of nitrocefin (Equation 4). (4) k2/Kcorrected = k2/Kobserved × (([S]/Km nitrocefin) + 1)

KPC-2 β-lactamase [6] = molecular target: T2, KPC-2 β-lactamase; assay: as above; assay type: biochemical
Procedure: as §3

KPC-2 β-lactamase [7] = molecular target: T2, KPC-2 β-lactamase; assay: Off rate (koff) after preincubation with saturating BATSI; assay type: biochemical
Procedure: The koff value was determined by mixing KPC-2 or CTX-M-96 with 100 μM nitrocefin after preincubating 5 min with a saturating amount of each BATSI, and progress curves were fitted to a single exponential decay equation as previously described ([12][–][14]).

[8] = test system: pan-drug-resistant KPC-producing K. pneumoniae clinical isolate; design: method as in our unpublished data; settings: paired with cefepime; separate paper and previous results, ref our unpublished data; cited from earlier work
[9] = test system: Escherichia coli DH10B carrying blaSHV, blaKPC-2, and blaKPC-3 variants; design: method as in PMID 26729496; settings: previous studies; cited from earlier work
KPC-2 β-lactamase [10] = molecular target: T2, KPC-2 β-lactamase; design: method as in PMID 26729496; settings: published previously; cited from earlier work
KPC-2 β-lactamase [11] = molecular target: T2, KPC-2 β-lactamase; design: method as in PMID 26729496; settings: off rate, published previously; cited from earlier work
CTX-M-96 = molecular target: CTX-M-96; design: method as in PMID 26228623; settings: previously reported; cited from earlier work

| SMILES | solubility [1] [mM] | Koff (CTX-M-96 β-lactamase [2]) | IC50 (CTX-M-96 β-lactamase [3]) [nM] | IC50 (KPC-2 β-lactamase [4]) [nM] | k2/K (CTX-M-96 β-lactamase [5]) | k2/K (KPC-2 β-lactamase [6]; on rate) | kinact/KI (KPC-2 β-lactamase [6]; on rate) [M⁻¹ s⁻¹] | Koff (KPC-2 β-lactamase [7]) [s⁻¹] | restoration of cefepime activity [8] | restoration of susceptibility combined with cefepime [9] | IC50 (KPC-2 β-lactamase [10]) [nM] | k2/K fold higher compared to MB_076 (KPC-2 β-lactamase [6]) [fold] | Koff (KPC-2 β-lactamase [11]) | inactivation efficiency value (kinact/KI) (CTX-M-96) |
| --- | --- | --- | --- | --- | --- | --- | --- | --- | --- | --- | --- | --- | --- | --- |
| Nc1nnc(SCC(=O)N[C@@H](Cn2cc(C(=O)O)nn2)B(O)O)s1 [MB_076] | 1000 (≈ 373 mg/mL) | (0.62 ± 0.05) × 10^−3 s^−1 | 4 ± 0.5 | 135 ± 20 | 3,900 M^−1 s^−1 | 1,200 M^−1 s^−1 | 1200 | 0.001 | restore cefepime activity |  |  |  |  |  |
| O=C(Cc1cccs1)N[C@@H](Cn1cc(C(=O)O)nn1)B(O)O [S02030] | 250 (≈ 81 mg/mL) | (0.75 ± 0.03) × 10^−3 s^−1 | 2 ± 0.2 |  | 24,000 M^−1 s^−1 |  |  |  | restore cefepime activity | restored susceptibility | 80 ± 2 | 10 | (0.46 ± 0.02) × 10^−3 s^−1 |  |
| O=C(O)[C@H]1/C(=C/CO)O[C@@H]2CC(=O)N21 [clavulanic acid] |  |  |  |  |  |  |  |  |  |  |  |  |  | 45,000 M^−1 s^−1 |

From article PMC9872677, “Boronic Acid Transition State Inhibitors as Potent Inactivators of KPC and CTX-M β-Lactamases: Biochemical and Structural Analyses” (Antimicrobial Agents and Chemotherapy, 2023)
